Experimental data taken from ChEMBL document CHEMBL1136167, “Prediction of hERG potassium channel affinity by traditional and hologram qSAR methods” (Bioorg Med Chem Lett, 2003).

What follows are molecules tested against T1, Voltage-gated inwardly rectifying potassium channel KCNH2 (Homo sapiens, UniProt Q12809) (assay: Inhibition of human Potassium channel HERG expressed in mammalian cells). Conditions: not given.
T1 sequence (Q12809 whole entry): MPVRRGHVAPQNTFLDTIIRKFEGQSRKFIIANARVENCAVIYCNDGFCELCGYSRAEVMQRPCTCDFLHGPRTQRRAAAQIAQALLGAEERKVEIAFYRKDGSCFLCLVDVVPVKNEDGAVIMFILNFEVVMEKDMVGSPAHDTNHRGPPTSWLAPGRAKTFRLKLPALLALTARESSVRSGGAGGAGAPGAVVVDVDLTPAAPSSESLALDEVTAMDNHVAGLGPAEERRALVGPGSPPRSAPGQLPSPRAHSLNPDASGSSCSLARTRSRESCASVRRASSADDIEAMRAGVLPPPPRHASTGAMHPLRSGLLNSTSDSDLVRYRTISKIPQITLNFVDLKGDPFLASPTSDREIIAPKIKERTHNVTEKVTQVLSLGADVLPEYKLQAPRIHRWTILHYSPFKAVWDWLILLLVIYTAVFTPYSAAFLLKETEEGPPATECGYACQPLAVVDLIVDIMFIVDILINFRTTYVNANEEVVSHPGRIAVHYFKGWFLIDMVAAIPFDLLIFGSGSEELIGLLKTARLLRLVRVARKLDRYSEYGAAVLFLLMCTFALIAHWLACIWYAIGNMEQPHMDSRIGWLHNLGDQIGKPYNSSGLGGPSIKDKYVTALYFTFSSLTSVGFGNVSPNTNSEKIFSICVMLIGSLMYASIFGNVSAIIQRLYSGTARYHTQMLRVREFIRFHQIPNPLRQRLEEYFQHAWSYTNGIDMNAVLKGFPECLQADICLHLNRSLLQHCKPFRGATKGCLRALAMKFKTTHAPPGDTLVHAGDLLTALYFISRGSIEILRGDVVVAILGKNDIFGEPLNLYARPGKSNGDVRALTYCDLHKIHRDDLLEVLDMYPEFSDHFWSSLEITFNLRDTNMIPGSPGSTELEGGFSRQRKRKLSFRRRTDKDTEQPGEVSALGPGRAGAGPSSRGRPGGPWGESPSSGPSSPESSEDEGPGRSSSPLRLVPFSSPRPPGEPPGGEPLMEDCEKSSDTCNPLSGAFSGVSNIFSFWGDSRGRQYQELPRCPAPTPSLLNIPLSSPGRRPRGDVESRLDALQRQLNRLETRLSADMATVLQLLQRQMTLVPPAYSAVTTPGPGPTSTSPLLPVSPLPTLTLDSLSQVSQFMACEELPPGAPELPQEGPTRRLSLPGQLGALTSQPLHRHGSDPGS

For `CN(c1nccc(=O)[nH]1)C1CCN(c2nc3ccccc3n2Cc2ccc(F)cc2)CC1` [MIZOLASTINE], which IC50 is on record?
The IC50 was 0.437 µM.

For `C[C@@H]1CN(c2c(F)c(N)c3c(=O)c(C(=O)O)cn(C4CC4)c3c2F)C[C@H](C)N1` [SPARFLOXACIN], which IC50 is on record?
Its IC50 is 18.2 µM.

For `COc1ccc(C2CCN(CCC3CCOc4ccccc43)CC2)cc1OC` (centres undefined), which IC50 is on record?
Its IC50 is 0.2 µM.

Which IC50 does the source give for `O=C(O[C@H]1C[C@@H]2C[C@@H]3C[C@@H](C1)N2CC3=O)C1CNc2ccccc21` (some centres undefined) here?
The IC50 was 5.89 µM.

`Oc1ccc(CCN2CCC(Nc3nc4ccccc4n3Cc3ccc(F)cc3)CC2)cc1` [DESMETHEYLASTEMIZOLE] was tested. Which IC50 did it give?
The IC50 was 0.001 µM.

For `COc1ccc(C(=O)N2CCN(c3ccc4c(c3)CCC(=O)N4)CC2)cc1OC` [VESNARINONE], which IC50 is on record?
Its IC50 is 1.1 µM.

Which IC50 does the source give for `COc1ccc(C2CCN(CC[C@H]3CCOc4ccccc43)CC2)cc1OC` [TERIKALANT] here?
Its IC50 is 0.251 µM.

How did the IC50 turn out when `Cc1cc2c(s1)Nc1ccccc1N=C2N1CCN(C)CC1` [OLANZAPINE] was run?
Its IC50 is 0.182 µM.

`COc1c(N2CCNC(C)C2)c(F)cc2c(=O)c(C(=O)O)cn(C3CC3)c12` (centres undefined) [GATIFLOXACIN] was tested. Which IC50 did it give?
The IC50 was 129 µM.

`CN1CCC[C@H]1c1cccnc1` [NICOTINE] was tested. Which IC50 did it give?
The IC50 was 245 µM.

How did the IC50 turn out when `CCOC(=O)C1=C(C)NC(C)=C(C(=O)OC)C1c1cccc([N+](=O)[O-])c1` (centres undefined) [NITRENDIPINE] was run?
The IC50 was 10 µM.

How did the IC50 turn out when `CC[C@H]1OC(=O)[C@H](C)[C@@H](O[C@H]2C[C@@](C)(OC)[C@@H](O)[C@H](C)O2)[C@H](C)[C@@H](O[C@@H]2O[C@H](C)C[C@H](N(C)C)[C@H]2O)[C@](C)(OC)C[C@@H](C)C(=O)[C@H](C)[C@@H](O)[C@]1(C)O` [CLARITHROMYCIN] was run?
The IC50 was 58.9 µM.

Same assay, conditions: human

With `Cc1c(F)c(N2CCNC(C)C2)cc2c1c(=O)c(C(=O)O)cn2C1CC1` (centres undefined) [GREPAFLOXACIN] as the molecule, how does the pIC50 read?
Its pIC50 is […].

Each molecule was assayed against T1, Voltage-gated inwardly rectifying potassium channel KCNH2 (assay: Inhibition of K+ channel activity in mammalian cells expressing HERG Kv11.1). Conditions: not given.
Assay type: cell-based

`CC[C@H]1OC(=O)[C@H](C)[C@@H](O[C@H]2C[C@@](C)(OC)[C@@H](O)[C@H](C)O2)[C@H](C)[C@@H](O[C@@H]2O[C@H](C)C[C@H](N(C)C)[C@H]2O)[C@](C)(OC)C[C@@H](C)C(=O)[C@H](C)[C@@H](O)[C@]1(C)O` [CLARITHROMYCIN] was tested. Which IC50 did it give?
The IC50 was 33.1 µM.
